Blank lines part the entries; values can stand above or below the compound they belong to.
Assays:
[1] = Henry solubility constant Hcp at 296 K (mol/(m3 Pa))
[2] = Henry solubility constant Hcp at 295 K (mol/(m3 Pa))
[3] = Henry solubility constant Hcp at 303 K (mol/(m3 Pa))
[4] = Henry solubility constant Hcp at 293 K (mol/(m3 Pa))
[5] = Henry solubility constant Hcp at 298.15 K (mol/(m3 Pa))
[6] = Henry solubility constant Hcp at 288 K (mol/(m3 Pa))
[7] = Henry solubility constant Hcp at 310 K (mol/(m3 Pa))
[8] = Henry solubility constant Hcp at 278 K (mol/(m3 Pa)); settings: reference: Sauer (1997)
[9] = Henry solubility constant Hcp at 291 K (mol/(m3 Pa)); settings: reference: Treves et al. (2000)
[10] = reference: O’Sullivan et al. (1996)

Structure (SMILES): c1ccccc1 [benzene]
- Henry solubility constant Hcp at 296 K ([1]; reference: Anderson (1992)): 0.0018
- Henry solubility constant Hcp at 296 K ([1]; reference: Miller and Stuart (2000)): 0.0018
- Henry solubility constant Hcp at 295 K ([2]; reference: de Wolf and Lieder (1998)): 0.0022
- Henry solubility constant Hcp at 303 K ([3]; reference: Saylor et al. (1938)): 0.0015
- Henry solubility constant Hcp at 293 K ([4]; reference: Vitenberg et al. (1974)): 0.0012
- Henry solubility constant Hcp at 293 K ([4]; reference: Yu (1992)): 0.0019
- Henry solubility constant Hcp at 293 K ([4]; reference: Yurteri et al. (1987)): 0.0013
- Henry solubility constant Hcp ([5]; reference: Alaee et al. (1996)): 0.0018
- Henry solubility constant Hcp ([5]; reference: Allen et al. (1998)): 0.0018
- Henry solubility constant Hcp ([5]; reference: Bakierowska and Trzeszczyński (2003)): 0.0018
- Henry solubility constant Hcp ([5]; reference: Bierwagen and Keller (2001)): 0.0019
- Henry solubility constant Hcp ([5]; reference: Bissonette et al. (1990)): 0.0016
- Henry solubility constant Hcp ([5]; reference: Brown and Wasik (1974)): 0.0017
- Henry solubility constant Hcp ([5]; reference: Cooling et al. (1992)): 0.0017
- Henry solubility constant Hcp ([5]; reference: Ervin et al. (1980)): 0.0012
- Henry solubility constant Hcp ([5]; reference: Ettre et al. (1993)): 0.0018
- Henry solubility constant Hcp ([5]; reference: Green and Frank (1979)): 0.0018
- Henry solubility constant Hcp ([5]; reference: Görgényi et al. (2002)): 0.0017
- Henry solubility constant Hcp ([5]; reference: Hartkopf and Karger (1973)): 0.0021
- Henry solubility constant Hcp ([5]; reference: Keeley et al. (1988)): 0.0017
- Henry solubility constant Hcp ([5]; reference: Khalfaoui and Newsham (1994b)): 0.0017
- Henry solubility constant Hcp ([5]; reference: Lau et al. (2010)): 0.0014
- Henry solubility constant Hcp ([5]; reference: Lei et al. (2004)): 0.0014
- Henry solubility constant Hcp ([5]; reference: Li et al. (2008)): 0.0018
- Henry solubility constant Hcp ([5]; reference: Lodge and Danso (2007)): 0.0025
- Henry solubility constant Hcp ([5]; reference: Mackay et al. (1979)): 0.0018
- Henry solubility constant Hcp ([5]; reference: Nielsen et al. (1994)): 0.002
- Henry solubility constant Hcp ([5]; reference: Park et al. (1997)): 0.0014
- Henry solubility constant Hcp ([5]; reference: Peng and Wan (1997)): 0.0019
- Henry solubility constant Hcp ([5]; reference: Peng and Wan (1998)): 0.0022
- Henry solubility constant Hcp ([5]; reference: Perlinger et al. (1993)): 0.0017
- Henry solubility constant Hcp ([5]; reference: Robbins et al. (1993)): 0.0018
- Henry solubility constant Hcp ([5]; reference: Sanemasa et al. (1981)): 0.0017
- Henry solubility constant Hcp ([5]; reference: Sieg et al. (2009)): 0.0017
- Henry solubility constant Hcp ([5]; reference: Tsibul’skii et al. (1979)): 0.0016
- Henry solubility constant Hcp ([5]; reference: Tsonopoulos and Wilson (1983)): 0.0018
- Henry solubility constant Hcp ([5]; reference: Turner et al. (1996)): 0.0016
- Henry solubility constant Hcp ([5]; reference: Vitenberg et al. (1975)): 0.0018
- Henry solubility constant Hcp ([5]; reference: Warner et al. (1980)): 0.0018
- Henry solubility constant Hcp ([5]; reference: Wasik and Tsang (1970)): 0.0016

Structure (SMILES): [O]N=O [nitrogen dioxide]
- Henry solubility constant Hcp at 295 K ([2]; reference: Lee and Schwartz (1981)): 6.9e-05
- Henry solubility constant Hcp at 288 K ([6]; reference: Komiyama and Inoue (1980)): 0.00023
- Henry solubility constant Hcp ([5]; reference: Cheung et al. (2000)): 0.00012

Structure (SMILES): CC(C)O [2-propanol]
- Henry solubility constant Hcp at 288 K ([6]; reference: Pividal et al. (1992)): 1.4
- Henry solubility constant Hcp at 293 K ([4]; reference: Yu (1992)): 0.98
- Henry solubility constant Hcp ([5]; reference: Butler et al. (1935)): 1.2
- Henry solubility constant Hcp ([5]; reference: Kim et al. (2000)): 1.1
- Henry solubility constant Hcp ([5]; reference: Lin and Chou (2006)): 1.3
- Henry solubility constant Hcp ([5]; reference: Snider and Dawson (1985)): 1.2

Structure (SMILES): [CH3][Hg][Cl] [chloromethylmercury]
- Henry solubility constant Hcp at 295 K ([2]; reference: Talmi and Mesmer (1975)): 15
- Henry solubility constant Hcp ([5]; reference: Iverfeldt and Lindqvist (1982)): 22

Structure (SMILES): CCCCC(CC)COC(=O)CCCCC(=O)OCC(CC)CCCC (centres undefined) [di-(2-ethylhexyl)-adipate]
- Henry solubility constant Hcp at 295 K ([2]; reference: Felder et al. (1986)): 23

Structure (SMILES): [HH] [hydrogen]
- Henry solubility constant Hcp at 310 K ([7]; reference: Longo et al. (1970)): 7.2e-06
- Henry solubility constant Hcp at 310 K ([7]; reference: Power and Stegall (1970)): 7.2e-06
- Henry solubility constant Hcp at 303 K ([3]; reference: Ruetschi and Amlie (1966)): 7.5e-06
- Henry solubility constant Hcp ([5]; reference: Bohr and Bock (1891)): 7.5e-06
- Henry solubility constant Hcp ([5]; reference: Braun (1900)): 7.7e-06
- Henry solubility constant Hcp ([5]; reference: Bunsen (1855a)): 8.5e-06
- Henry solubility constant Hcp ([5]; reference: Crozier and Yamamoto (1974)): 7.7e-06
- Henry solubility constant Hcp ([5]; reference: Geffcken (1904)): 7.8e-06
- Henry solubility constant Hcp ([5]; reference: Gordon et al. (1977)): 7.7e-06
- Henry solubility constant Hcp ([5]; reference: Morrison and Billett (1952)): 7.8e-06
- Henry solubility constant Hcp ([5]; reference: Schmidt (1979)): 7.8e-06
- Henry solubility constant Hcp ([5]; reference: Timofejew (1890)): 7.8e-06
- Henry solubility constant Hcp ([5]; reference: Winkler (1891a)): 7.7e-06

Structure (SMILES): CCOO [ethyl hydroperoxide]
- Henry solubility constant Hcp at 278 K [8]: 11
- Henry solubility constant Hcp [5, 10]: 3.3

Structure (SMILES): CC(=O)OO [ethanoic peroxyacid]
- Henry solubility constant Hcp at 278 K [8]: 24
- Henry solubility constant Hcp ([5]; reference: Lind and Kok (1994)): 6.5
- Henry solubility constant Hcp [5, 10]: 8.3

- Henry solubility constant Hcp at 303 K ([3]; reference: Richon et al. (1985)): 0.031
- Henry solubility constant Hcp ([5]; reference: Fenclová et al. (2014)): 0.045
- Henry solubility constant Hcp ([5]; reference: Kieckbusch and King (1979b)): 0.045
Structure (SMILES): CCCOC(C)=O [propyl ethanoate]

Structure (SMILES): COO [methyl hydroperoxide]
- Henry solubility constant Hcp at 278 K [8]: 12
- Henry solubility constant Hcp ([5]; reference: Li et al. (2004)): 2.5
- Henry solubility constant Hcp ([5]; reference: Lind and Kok (1994)): 3
- Henry solubility constant Hcp ([5]; reference: Magi et al. (1997)): > 6.9
- Henry solubility constant Hcp [5, 10]: 3.1

Structure (SMILES): CC(O)CCO[N+](=O)[O-] (centres undefined) [4-nitrooxy-2-butanol]
- Henry solubility constant Hcp at 291 K [9]: 130
